Read-outs that look alike come from different tables or passages of the source.
Legend:
[1] = target: human FGF-R1 (Homo sapiens, UniProt P11362, C488A/C584S/L457V); assay: FGF-R spectrophotometric assay
[2] = Determination of inhibitor concentration in mouse plasma after intraperitoneal and oral dosing; assay type: in vivo
Method in brief: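 Mice dosed intraperitoneally or orally; blood taken by ocular bleed at 0.5, 1 and 4 h and by intracardiac puncture at 7 h. Plasma extracted with ethyl acetate after internal standard and NaOH addition, analysed by HPLC or LC-MS against a mouse-plasma standard curve.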

[3] = Human liver microsome (HLM) assay; assay type: in vitro ADME; settings: human liver microsomes, 5 μM test compound
Method in brief: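 Compound metabolism in human liver microsomes measured in triplicate. Samples at 0 and 2 h centrifuged at 14000 g for 10 min and analysed by LC-MS.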

[4] = test system: retinal vasculature (VEGF dependent); assay: In vivo assay of retinal vascular development in neonatal rats; settings: P8 model; intravitreal; 5 mg/ml; vehicle PEG/water 50:50
[5] = target: unphosphorylated VEGF-R2Δ50 (FLVK) (Homo sapiens, UniProt P35968, DEL940-989/E990V); assay: VEGF-R2 coupled spectrophotometric assay, unphosphorylated VEGF-R2Δ50 (FLVK); settings: for Ki: FLVK Ki, Table 1
unphosphorylated VEGF-R2Δ50 (FLVK), sequence (P35968 with tags, fused parts or gaps DEL940-989/E990V limits assumed): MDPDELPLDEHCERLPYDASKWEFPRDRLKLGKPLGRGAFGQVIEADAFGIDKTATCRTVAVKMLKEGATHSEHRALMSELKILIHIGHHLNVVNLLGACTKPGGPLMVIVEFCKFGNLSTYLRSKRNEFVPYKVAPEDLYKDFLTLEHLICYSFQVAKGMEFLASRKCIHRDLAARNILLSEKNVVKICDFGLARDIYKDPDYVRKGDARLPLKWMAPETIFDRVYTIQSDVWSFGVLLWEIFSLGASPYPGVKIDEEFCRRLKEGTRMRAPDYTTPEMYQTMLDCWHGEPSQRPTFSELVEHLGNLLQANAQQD

[6] = test system: VEGF dependent retinal neovascularization; assay: In vivo assay of retinal vascular development in neonatal rat model of retinopathy of prematurity; settings: ROP model, intravitreal, vehicle PEG/water 70:30; for % inhibition: 1 mg/ml
Procedure: In Vivo Assay of Retinal Vascular Development in Neonatal Rat Model of Retinopathy of Prematurity A second model of VEGF dependent retinal neovascularization was employed to evaluate the activities of this series of compounds. […] This alternating cycle of hyperoxia followed by hypoxia is repeated 7 times after which the animals are removed to room air (P14). Compounds are administered via intravitreal injection upon removal to room air and the animals are sacrificed 6 days later (P20). The isolated retinas are then isolated, stained mounted and analyzed as detail above in the development model. The effectiveness was also graded as is described for the development model.

[7] = target: CDK2/Cyclin A (Homo sapiens, UniProt P24941); assay: CDK2/Cyclin A assay ([32P]ATP, Rb fragment); assay type: biochemical; settings: Table 3
[8] = target: T1, human CHK1 (FL-CHK1) (Homo sapiens, UniProt O14757); assay: CHK1 assay (coupled spectrophotometric, Syntide-2); assay type: biochemical; settings: Table 3; read-out: CHK-1 Ki
T1 construct: C-terminally His-tagged full-length human CHK1 (FL-CHK1); made in house; host or cells: baculovirus/insect cell system
T1 sequence (O14757 1-476): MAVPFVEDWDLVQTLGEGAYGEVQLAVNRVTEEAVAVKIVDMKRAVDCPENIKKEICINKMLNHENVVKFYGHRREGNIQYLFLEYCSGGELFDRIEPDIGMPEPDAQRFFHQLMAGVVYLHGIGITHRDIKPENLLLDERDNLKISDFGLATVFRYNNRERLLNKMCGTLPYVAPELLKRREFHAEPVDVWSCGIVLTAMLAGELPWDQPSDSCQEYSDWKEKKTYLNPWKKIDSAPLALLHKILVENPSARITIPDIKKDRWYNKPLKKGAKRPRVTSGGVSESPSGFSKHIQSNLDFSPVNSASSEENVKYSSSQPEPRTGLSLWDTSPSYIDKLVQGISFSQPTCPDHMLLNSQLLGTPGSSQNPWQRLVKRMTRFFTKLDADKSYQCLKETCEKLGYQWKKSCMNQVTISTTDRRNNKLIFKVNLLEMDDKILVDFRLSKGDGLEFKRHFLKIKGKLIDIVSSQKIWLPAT
Method in brief: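 Full-length C-terminally His-tagged human CHK1 expressed in baculovirus/insect cells, used at 10 nM with Syntide-2 substrate. ADP formation coupled via PK/LDH to NADH oxidation, followed as absorbance decrease at 340 nm. Ki from initial rates at varying compound concentrations.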

[9] = target: CDK4/Cyclin D3 complex (Homo sapiens, UniProt P11802); assay: CDK4/Cyclin D assay ([32P]ATP, Rb fragment)
CDK4/Cyclin D3 complex, sequence (P11802 whole entry, the tested form may be a part): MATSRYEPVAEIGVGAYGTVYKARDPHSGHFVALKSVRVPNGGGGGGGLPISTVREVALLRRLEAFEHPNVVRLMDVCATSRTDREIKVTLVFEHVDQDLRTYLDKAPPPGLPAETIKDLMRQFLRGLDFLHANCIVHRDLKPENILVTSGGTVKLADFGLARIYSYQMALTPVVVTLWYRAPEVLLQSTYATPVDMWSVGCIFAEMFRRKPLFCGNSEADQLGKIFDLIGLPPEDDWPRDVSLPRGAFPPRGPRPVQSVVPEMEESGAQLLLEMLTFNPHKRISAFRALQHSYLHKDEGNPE
CDK4/Cyclin D3 complex, sequence (P30281 whole entry partner, the tested form may be a part): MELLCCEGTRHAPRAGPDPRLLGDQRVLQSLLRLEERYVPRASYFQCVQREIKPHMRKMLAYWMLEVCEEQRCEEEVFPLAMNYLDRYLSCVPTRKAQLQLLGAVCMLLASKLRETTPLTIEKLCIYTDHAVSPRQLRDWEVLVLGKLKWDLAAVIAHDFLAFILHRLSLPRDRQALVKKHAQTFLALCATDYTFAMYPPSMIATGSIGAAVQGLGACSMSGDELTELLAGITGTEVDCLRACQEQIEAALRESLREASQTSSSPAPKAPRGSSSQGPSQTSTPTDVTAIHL

[10] = target: CDK1 (Homo sapiens, UniProt P06493); assay: CDK1 inhibition; assay type: biochemical; settings: Table 3
CDK1, sequence (P06493 whole entry, species assumed): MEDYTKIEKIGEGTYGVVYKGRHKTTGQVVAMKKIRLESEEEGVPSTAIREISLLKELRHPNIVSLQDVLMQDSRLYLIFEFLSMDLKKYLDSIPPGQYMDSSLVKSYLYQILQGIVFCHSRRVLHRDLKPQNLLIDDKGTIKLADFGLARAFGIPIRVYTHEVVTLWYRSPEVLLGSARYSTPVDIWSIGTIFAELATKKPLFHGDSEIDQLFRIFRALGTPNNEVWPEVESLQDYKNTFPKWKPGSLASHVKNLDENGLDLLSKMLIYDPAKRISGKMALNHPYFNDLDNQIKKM
CDK1, sequence (P14635 whole entry partner, species assumed): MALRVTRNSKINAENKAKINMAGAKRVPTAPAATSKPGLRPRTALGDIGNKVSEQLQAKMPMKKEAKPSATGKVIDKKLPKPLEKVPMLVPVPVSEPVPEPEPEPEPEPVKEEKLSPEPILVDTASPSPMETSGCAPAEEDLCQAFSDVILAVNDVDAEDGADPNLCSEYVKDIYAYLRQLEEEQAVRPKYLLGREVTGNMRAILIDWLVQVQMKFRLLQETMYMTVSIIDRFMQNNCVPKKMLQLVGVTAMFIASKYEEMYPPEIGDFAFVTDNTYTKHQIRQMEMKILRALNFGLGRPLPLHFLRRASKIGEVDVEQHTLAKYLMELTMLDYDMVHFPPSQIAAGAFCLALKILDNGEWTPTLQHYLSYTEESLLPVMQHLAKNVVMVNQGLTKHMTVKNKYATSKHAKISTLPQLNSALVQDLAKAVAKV

[11] = test system: human umbilical vein endothelial cells (HUVEC); assay: HUVEC proliferation assay (VEGF-stimulated, MTT); assay type: cell-based; settings: Homo sapiens, HUVEC, + albumin; read-out: HUVEC + albumin IC50
[12] = IP, 25 mg/kg, vehicle PEG400:H2O pH 2.3 30:70
[13] = PO, 10 mg/kg, vehicle PEG400:H2O pH 2.3 30:70
[14] = PO, 25 mg/kg, vehicle PEG400:H2O pH 2.3 30:70
[15] = PO, 50 mg/kg, vehicle PEG400:H2O pH 2.3 30:70
[16] = female, IP, 25 mg/kg, vehicle PEG400:H2O pH 2.3 30:70, read-out: Cmin (7 hr conc.)
[17] = female, PO, 25 mg/kg, vehicle PEG400:H2O pH 2.3 30:70, read-out: Cmin (7 hr conc.)
[18] = female, PO, 50 mg/kg, vehicle PEG400:H2O pH 2.3 30:70, read-out: Cmin (7 hr conc.)
[19] = IP, 25 mg/kg, vehicle PEG400:H2O pH 2.3 60:40
[20] = PO, 50 mg/kg, vehicle PEG400:H2O pH 2.3 60:40
[21] = female, IP, 25 mg/kg, vehicle PEG400:H2O pH 2.3 60:40, read-out: Cmin (7 hr conc.)
[22] = female, PO, 50 mg/kg, vehicle PEG400:H2O pH 2.3 60:40, read-out: Cmin (7 hr conc.)
[23] = female, IP, 25 mg/kg, vehicle PEG400:H2O pH 2.3 30:70
[24] = female, PO, 50 mg/kg, vehicle PEG400:H2O pH 2.3 30:70

human FGF-R1, sequence (P11362 456-766 L457V/C488A/C584S): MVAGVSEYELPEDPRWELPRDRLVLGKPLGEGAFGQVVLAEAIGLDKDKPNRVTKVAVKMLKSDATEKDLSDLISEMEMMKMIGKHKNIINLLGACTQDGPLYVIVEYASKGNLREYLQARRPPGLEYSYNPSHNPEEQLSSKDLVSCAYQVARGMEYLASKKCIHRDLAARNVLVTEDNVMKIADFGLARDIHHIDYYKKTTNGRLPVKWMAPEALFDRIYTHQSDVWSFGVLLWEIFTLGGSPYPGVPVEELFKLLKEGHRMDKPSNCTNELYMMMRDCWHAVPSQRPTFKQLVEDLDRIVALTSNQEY

Compound `CCn1nc(C)cc1C(=O)Nc1cccc(Oc2ccc3c(/C=C/c4ccccn4)n[nH]c3c2)c1` [Example 31(d), 6-[3-((1-Ethyl-3-methyl-1H-pyrazol-5-yl)carboxamido)phenoxy]-3-E-[2-(pyridin-2-yl)ethenyl]-1H-indazole] has a Ki [1] of 14 nM, an AUClast [2, 12] of 237.784 µg·h/mL and a Cmax [2, 12] of 64.184 µg/mL. For the same compound, the “plasma half-life (T1/2)” value [2, 12] was 5.3 h, the AUClast [2, 13] was 49.12 µg·h/mL and the Cmax [2, 13] was 9.74 µg/mL. The “plasma half-life (T1/2)” value [2, 13] was 3.1 h, the AUClast [2, 14] was 203.86 µg·h/mL and the Cmax [2, 14] was 50.81 µg/mL. The “plasma half-life (T1/2)” value [2, 14] was 1.9 h, the AUClast [2, 15] was 430.683 µg·h/mL and the Cmax [2, 15] was 76.915 µg/mL. For the same compound, the “plasma half-life (T1/2)” value [2, 15] was 39.3 h, the concentration at 7 h [2, 16] was 15.1 µg/mL and the concentration at 7 hr ([2]; female, PO, 10 mg/kg, vehicle PEG400:H2O pH 2.3 30:70, read-out: Cmin (7 hr conc.)) was 2.02 µg/mL. The concentration at 7 h [2, 17] was 3.8 µg/mL, the concentration at 7 h [2, 18] was 42.5 µg/mL and the “% remain (HLM, 2 h)” value [3] was 110%. For the same compound, the “% inhibition” value [4] was 12%.
With `O=C(c1cccc(NC(=O)c2cccc3[nH]ccc23)c1)c1ccc2c(/C=C/c3ccccn3)n[nH]c2c1` [Example 41(d), 6-[3-(Indol-4-ylcarboxamido)benzoyl]-3-E-[2-(pyridin-2-yl)ethenyl]-1H-indazole] the AUClast [2, 19] was 10.324 µg·h/mL, the “plasma half-life (T1/2)” value [2, 19] was 2.8 h and the AUClast [2, 20] was 7.072 µg·h/mL. For the same compound, the “plasma half-life (T1/2)” value [2, 20] was 1.5 h, the concentration at 7 h [2, 21] was 0.573 µg/mL and the concentration at 7 h [2, 22] was 0.15 µg/mL. For the same compound, the Ki [5] was 0.093 nM and the “% inhibition” value [6] was 0%.
With `O=C(Nc1ccc(O)cc1)c1ccc2c(-c3nc4ccccc4[nH]3)n[nH]c2c1` [Example 53(a), 3-(1H-Benzoidazol-2-yl)-N-(4-hydroxyphenyl)-1H-indazole-6-carboxamide] the inhibition at 5 µM ([7]; @ 5 μM) was 13%, the Ki [8] was 301 nM and the inhibition at 5 µM ([9]; read-out: CDK4 % inhibition) was 28%. The Ki [10] was 24000 nM.
In the case of `C/C=C/C(=O)Nc1cccc(C(=O)c2ccc3c(/C=C/c4ccccn4)n[nH]c3c2)c1` [Example 41(c), 6-(3-Crotonylamidobenzoyl)-3-E-[2-(pyridin-2-yl)ethenyl]-1H-indazole], the AUClast [2, 19] is reported as 3.397 µg·h/mL, the “plasma half-life (T1/2)” value [2, 19] is reported as 1.7 h and the AUClast [2, 20] is reported as 3.182 µg·h/mL. For the same compound, the “plasma half-life (T1/2)” value [2, 20] was 2.6 h, the concentration at 7 h [2, 21] was 0.057 µg/mL and the concentration at 7 h [2, 22] was 0.104 µg/mL. For the same compound, the Ki [5] was 0.22 nM, the “% remain (HLM, 2 h)” value [3] was 68% and the “Initial Evaluation” value [4] was “++ (two pluses being judged to be approximately 25-75% regression)”. For the same compound, the “% inhibition” value [6] was 16% and the “Initial Evaluation” value ([6]; 10 mg/ml) was “+++ (three pluses give to retinas with near total regression (approximately 75% or greater))”.
With `Cc1cc(C(=O)Nc2cc(C(=O)c3ccc4c(/C=C/c5ccccn5)n[nH]c4c3)c(C)cc2C)n(C)n1` [Example 41(mm), 6-[2,4-Dimethyl-5-((1,3-dimethyl-1H-pyrazol-5-yl)carboxamido)benzoyl]-3-E-[2-(pyridin-2-yl)ethenyl]-1H-indazole] the AUClast [2, 14] was 2.261 µg·h/mL, the Cmax [2, 14] was 0.852 µg/mL and the “plasma half-life (T1/2)” value [2, 14] was 2.5 h. The concentration at 7 h [2, 17] was 0.127 µg/mL, the “% remain (HLM, 2 h)” value [3] was 94% and the “Initial Evaluation” value [4] was “+ (one plus being detectable regression judged to be approximately 25 percent or less)”.
For `CCONC(=O)c1ccccc1Sc1ccc2c(/C=C/c3ccccn3)n[nH]c2c1` [Example 35(dd), 6-[2-(Ethoxycarbamoyl)phenylsulfanyl]-3-E-[2-(pyridin-2-yl)ethenyl]-1H-indazole], the Ki [1] was 75 nM, the Ki [5] was 0.6 nM and the “% remain (HLM, 2 h)” value [3] was 26%. For the same compound, the “Initial Evaluation” value [4] was “++/+++ var”.
For `CS(=O)(=O)c1ccc(C(=O)Nc2cccc(Oc3ccc4c(/C=C/c5ccccn5)n[nH]c4c3)c2)s1` [Example 31(c), 6-[3-((5-Methylsulfonylthien-2-yl)carboxanido)phenoxy]-3-E-[2-(pyridin-2-yl)ethenyl]-1H-indazole], the Ki [5] was less than 0.1 nM, the “% remain (HLM, 2 h)” value [3] was 87% and the “Initial Evaluation” value [4] was “+/++ var”.
With `C=CCONC(=O)c1ccccc1Sc1ccc2c(/C=C/c3ccccn3)n[nH]c2c1` [Example 35(j), 6-[2-(Allyloxycarbamoyl)phenylsulfanyl]-3-E-[2-(pyridin-2-yl)ethenyl]-1H-indazole] the AUClast [2, 12] was 9.531 µg·h/mL, the “plasma half-life (T1/2)” value [2, 12] was 1.3 h and the AUClast [2, 15] was 1.328 µg·h/mL. For the same compound, the “plasma half-life (T1/2)” value [2, 15] was 4.5 h, the concentration at 7 h [2, 16] was 0.052 µg/mL and the concentration at 7 h [2, 18] was 0.005 µg/mL. The inhibition at 0.05 µM ([5]; read-out: FLVK % inhibition) was 99%, the “% remain (HLM, 2 h)” value [3] was 5% and the “% inhibition” value [4] was 7%. For the same compound, the IC50 [11] was 1.5 nM.
With `CCCn1nc(C)cc1C(=O)Nc1cccc(C(=O)c2ccc3c(/C=C/c4ccccn4)n[nH]c3c2)c1` [Example 41(r), 6-[3-((1-n-Propyl-3-methyl-1H-pyrazol-5-yl)carboxamido)benzoyl]-3-E-[2-(pyridin-2-yl)ethenyl]-1H-indazole] the AUC(0-t) [2, 23] was greater than 23.8 µg·h/mL, the Cmax ([2]; female, IP, 25 mg/kg, vehicle PEG400:H2O pH 2.3 30:70, read-out: Cmax) was greater than 5 µg/mL and the concentration at 7 h [2, 16] was greater than 5 µg/mL. For the same compound, the AUC(0-t) [2, 24] was greater than 17.8 µg·h/mL, the Cmax ([2]; female, PO, 50 mg/kg, vehicle PEG400:H2O pH 2.3 30:70, read-out: Cmax) was greater than 5 µg/mL and the concentration at 7 h [2, 18] was greater than 5 µg/mL. For the same compound, the “% remain (HLM, 2 h)” value [3] was 83% and the “Initial Evaluation” value [4] was “+/++ var”.
With `Fc1ccccc1/C=C/c1n[nH]c2cc(-c3ccncc3)ccc12` [Example 29(h), 6-Pyrid-4-yl-3-E-[2-(2-fluorophenyl)ethenyl]-1H-indazole] the Ki [7] was 3000 nM, the Ki [8] was 140 nM and the Ki [9] was 2200 nM. The Ki [10] was 1300 nM.
With `C(=C\c1n[nH]c2cc(-c3ccncc3)ccc12)/c1ccccc1` [Example 27(f)] the Ki [7] was 3300 nM, the Ki [8] was 350 nM and the Ki [9] was 780 nM. The Ki [10] was 223 nM.
In the case of `CCn1nc(C)cc1C(=O)Nc1cc(C(=O)c2ccc3c(/C=C/c4ccccn4)n[nH]c3c2)ccc1C` [Example 41(ee), 6-[3-((1-Ethyl-3-methyl-1H-pyrazol-5-yl)carboxanido)-4-methylbenzoyl]-3-E-[2-(pyridin-2-yl)ethenyl]-1H-indazole], the “plasma half-life (T1/2)” value [2, 12] is reported as 4.0 h, the “plasma half-life (T1/2)” value [2, 15] is reported as 3.4 h and the AUC(0-t) [2, 23] is reported as greater than 28.4 µg·h/mL. The concentration at 7 h [2, 16] was 1.67 µg/mL, the AUC(0-t) [2, 24] was greater than 25.3 µg·h/mL and the concentration at 7 h [2, 18] was 1.21 µg/mL. For the same compound, the Ki [5] was 0.13 nM, the “% remain (HLM, 2 h)” value [3] was 47% and the “Initial Evaluation” value [4] was “+/++ var”.

Source: patent publication US6534524B1, “Indazole compounds and pharmaceutical compositions for inhibiting protein kinases, and methods for their use” (Agouron Pharmaceuticals, Inc., priority 1999, dated 2003)
